Assay: Change over time of contrast agent concentration in circulating blood (blood sampling after administration)
Type: in vivo, nude mice
Settings: threshold value of linearity R^2≧0.8
Excerpt: FIG. 2 is a graph illustrating contrast agent concentration change information obtained from a plurality of blood samplings of nude mice to which a contrast agent has been administered. The vertical axis represents the concentration of coloring material in blood, and the horizontal axis denotes the time elapsed since administration. The graph depicts specifically the change of the concentration after administration of contrast agent in an amount of 20 nanomoles of coloring material equivalent, to the caudal vein of the nude mice. […]
In a case where the contrast agent is administered into the circulating blood as one shot, the contrast agent concentration in the circulating blood decreases exponentially due to clearance with the passage of time, as illustrated in FIG. 2. […] When no signal is acquired within an appropriate lapse of time, therefore, the contrast agent in the circulating blood may in some instances fail to be quantified successfully. […] On the other hand, once a prolonged period of time has elapsed since administration, the contrast agent concentration in the circulating blood decreases, and becomes readily influenced by the sensitivity and/or measurement variability of the measuring instrument. […]

## CC1(C)C(/C=C/C=C/C=C/C=C2\N(CCCCS(=O)(=O)O)c3ccc4ccccc4c3C2(C)C)=[N+](CCCCS(=O)(=O)[O-])c2ccc3ccccc3c21 [ICG, indocyanine green]
  TIME [hr] (measurement time range over which concentration in blood decreases linearly on a semi-logarithmic axis): 0.08~0.5 hr

Source: patent publication US20180055370A1, “PHOTOACOUSTIC APPARATUS” (CANON KABUSHIKI KAISHA, priority 2015, published 2018)
